Laboratory results taken from patent US9708314B2, “Heterocyclic amide compound” (NISSAN CHEMICAL INDUSTRIES, LTD., priority 2013, dated 2017).

Experiments:
Format in all cases: in vivo
[1] = tested on: directly sowed Oryza sativa; assay: Test Example 3: effect on crop by application to foliage (Wagner pot, water depth 0.1-0.5 cm); conditions: Nineteenth Table; application to foliage; application herbicide amount 320 g/ha
How it was run: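 Post-emergence foliar application at a stated g/ha rate to plants grown 14 days from seed in alluvial soil, greenhouse 25–30 °C. Visual score after 3 weeks: 0 (≤5% effect) through 5 (≥90%).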

Abutilon theophrasti = assay: Test Example 4: herbicidal effect by application to foliage (diluvial soil, plastic box); conditions: application to foliage, application herbicide amount 320 g/ha
How it was run: (§1)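 Scores run from 0 (herbicidal ratio ≤5%) to 5 (≥90%, almost fully withered) and were assessed three weeks after foliar spraying. Seedlings had been raised for 14 days at 25-30° C in sterilized diluvial soil before treatment, with the emulsion diluted in water to the stated g/ha dose.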

Alopecurus myosuroides = assay: as above; conditions: application to foliage, application herbicide amount 320 g/ha
How it was run: as §1

Amaranthus retroflexus = assay: as above; conditions: application to foliage, application herbicide amount 320 g/ha
How it was run: as §1

Apera spica-venti. = assay: as above; conditions: application to foliage, application herbicide amount 320 g/ha
How it was run: as §1

Avena fatua = assay: as above; conditions: application to foliage, application herbicide amount 320 g/ha
How it was run: as §1

Chenopodium album = assay: as above; conditions: application to foliage, application herbicide amount 320 g/ha
How it was run: as §1

Digitaria ciliaris = assay: as above; conditions: application to foliage, application herbicide amount 320 g/ha
How it was run: as §1

[2] = tested on: Echinochloa crus-galli var. crus-galli; assay: as above; conditions: application to foliage, application herbicide amount 320 g/ha
How it was run: as §1

Galium spurium = assay: as above; conditions: application to foliage, application herbicide amount 320 g/ha
How it was run: as §1

Lolium multiflorum Lam. = assay: as above; conditions: application to foliage, application herbicide amount 320 g/ha
How it was run: as §1

Setaria viridis = assay: as above; conditions: application to foliage, application herbicide amount 320 g/ha
How it was run: as §1

Stellaria media = assay: as above; conditions: application to foliage, application herbicide amount 320 g/ha
How it was run: as §1

Veronica persica = assay: as above; conditions: application to foliage, application herbicide amount 320 g/ha
How it was run: as §1

[3] = tested on: Beta vulgaris ssp. vulgaris; assay: Test Example 4: effect on crop by application to foliage (diluvial soil, plastic box); conditions: application to foliage, application herbicide amount 320 g/ha
How it was run: as §1

Brassica campestris L. = assay: as above; conditions: application to foliage, application herbicide amount 320 g/ha
How it was run: as §1

Glycine max = assay: as above; conditions: application to foliage, application herbicide amount 320 g/ha
How it was run: as §1

Triticum aestivum = assay: as above; conditions: application to foliage, application herbicide amount 320 g/ha
How it was run: as §1

Zea mays = assay: as above; conditions: application to foliage, application herbicide amount 320 g/ha
How it was run: as §1

[4] = tested on: directly sowed Oryza sativa; assay: as above; conditions: application to foliage, application herbicide amount 320 g/ha
How it was run: as §1

COc1ccc(N(C)c2nnc3c(C(=O)Nc4nnco4)ccc(C(F)(F)F)n23)cc1 [1-171]
b (effect on crop grade) [1]: 0 (Herbicidal ratio of 5% or less (almost no effect))
M: herbicidal effect on Abutilon theophrasti (Abutilon theophrasti): 4 (Herbicidal ratio of 70% or more and less than 90%)
J: herbicidal effect on Alopecurus myosuroides (Alopecurus myosuroides): 0 (Herbicidal ratio of 5% or less (almost no effect))
N: herbicidal effect on Amaranthus retroflexus (Amaranthus retroflexus): 4 (Herbicidal ratio of 70% or more and less than 90%)
L: herbicidal effect on Apera spica-venti. (Apera spica-venti.): 1 (Herbicidal ratio of 5% or more and less than 20%)
I: herbicidal effect on Avena fatua (Avena fatua): 0 (Herbicidal ratio of 5% or less (almost no effect))
O: herbicidal effect on Chenopodium album (Chenopodium album): 5 (Herbicidal ratio of 90% or more (almost completely withered))
F: herbicidal effect on Digitaria ciliaris (Digitaria ciliaris): 3 (Herbicidal ratio of 40% or more and less than 70%)
H: herbicidal effect on Echinochloa crus-galli var. crus-galli [2]: 5 (Herbicidal ratio of 90% or more (almost completely withered))
Q: herbicidal effect on Galium spurium (Galium spurium): 2 (Herbicidal ratio of 20% or more and less than 40%)
K: herbicidal effect on Lolium multiflorum Lam. (Lolium multiflorum Lam.): 0 (Herbicidal ratio of 5% or less (almost no effect))
G: herbicidal effect on Setaria viridis (Setaria viridis): 3 (Herbicidal ratio of 40% or more and less than 70%)
P: herbicidal effect on Stellaria media (Stellaria media): 5 (Herbicidal ratio of 90% or more (almost completely withered))
R: herbicidal effect on Veronica persica (Veronica persica): 3 (Herbicidal ratio of 40% or more and less than 70%)
f: effect on crop, Beta vulgaris ssp. vulgaris [3]: 5 (Herbicidal ratio of 90% or more (almost completely withered))
g: effect on crop, Brassica campestris L. (Brassica campestris L.): 3 (Herbicidal ratio of 40% or more and less than 70%)
d: effect on crop, Glycine max (Glycine max): 3 (Herbicidal ratio of 40% or more and less than 70%)
e: effect on crop, Triticum aestivum (Triticum aestivum): 0 (Herbicidal ratio of 5% or less (almost no effect))
c: effect on crop, Zea mays (Zea mays): 0 (Herbicidal ratio of 5% or less (almost no effect))
b: effect on crop, directly sowed Oryza sativa [4]: 0 (Herbicidal ratio of 5% or less (almost no effect))
